Where two headings read alike, the source gives them in different places.
Columns and labels:
[1] = system: BALB/cJ mice; assay: Modified forced swim test, chronic vs. subchronic fluoxetine; type: in vivo, mouse
Procedure: (§1) For chronic fluoxetine studies in BALB/cJ mice, 60 male BALB/cJ mice were tested in the OF for 30 min on days 19 or 20 of chronic fluoxetine treatment. Mice were then pretested and tested in the modified FST on days 21 and 22, respectively. Animals were then allowed to adapt to being singly housed, and were trained for NIH on days 25-27. Home cage and novel cage testing occurred on days 28 and 29, respectively. Mice were then assessed for PPI on days 34 or 35.
(§2) Studies of subchronic fluoxetine were conducted using separate groups of 60 male BALB/cJ mice to prevent fluoxetine treatment from exceeding one week. One group was tested in the OF after one day of subchronic fluoxetine treatment. Mice were then pretested after 6 and tested after 7 days of subchronic fluoxetine treatment in the modified FST. A second group of BALB/cJ mice began fluoxetine treatment after being singly housed. They were then tested in the NIH test after 4 (home) and 5 (novel) days of subchronic fluoxetine treatment. A third group was tested for PPI after one or two days of subchronic fluoxetine treatment.
Modified forced swim test: Mice were placed into 19 cm diameter plastic buckets which were 23 cm deep filled with 23°-25° C. water, and videotaped for six minutes. Only the last four minutes were scored for four measures: swimming, immobility, climbing, or other. The predominant behavior was recorded every 5 sec. For chronic and subchronic fluoxetine studies in BALB/cJ mice, mice were pre-exposed to the FST for 6 min 24 hours before test day to increase sensitivity for detecting antidepressant behavioral effects (Borsini et al., 1989).
Modified forced swim test: Two-factor ANOVAs with fluoxetine as a between-subjects factor and block (1 min intervals) as a within-subject factor were applied to three different measures: swimming, immobility, and climbing. Significant main effects of fluoxetine and interactions were resolved using post-hoc ANOVAs with adjusted p-values, and/or Newman-Keuls post-hoc tests.

[2] = system: animals; details: animals without drug withdrawal or chronic stress; low dose fluoxetine; cited from earlier work
[3] = system: BALB/cJ mice; assay: Novelty induced hypophagia test; type: in vivo, mouse
Procedure: as §1, §2
Novelty induced hypophagia test: Mice were singly housed several days before training began. For three consecutive days of training, mice were presented with diluted (1:3; milk:water) sweetened condensed milk (Carnation) in pipettes in the home cage for 30 min. Testing occurred on days 4 and 5 when mice were presented with the milk, and latency to drink and the volume consumed were recorded every five minutes for 30 min. On day 4, testing occurred in the home cage under dim lighting (approx. 50 lux). Mice were briefly removed from the cage to position pipettes, and testing began when mice were returned to their cages. On day 5, mice were placed into new cages of the same dimensions without shavings under bright lighting (approx. 1200 lux). White paper was placed under cages to enhance aversiveness on day 5.
Novelty induced hypophagia test: For latency scores, a maximum cut-off of 600 sec was used. Two-factor ANOVAs with home/novel cage condition as a within-subjects factor and fluoxetine as a between-subjects factor were applied to latency values. Main effects of fluoxetine or significant interactions of fluoxetine and home/novel cage condition were resolved using post-hoc ANOVAs with adjusted p-values and/or Newman-Keuls post-hoc tests. For consumption data, a three-factor ANOVA with block (5 min intervals) and home/novel cage condition as within-subjects factors and fluoxetine as a between-subjects factor was used to assess whether the novel cage was sufficiently anxiogenic to reduce consumption. Two-factor ANOVAs with block as a within-subjects factor and fluoxetine as a between-subjects factor were applied separately to consumption values for the home and the novel cage. Main effects of fluoxetine or significant interactions were resolved using post-hoc ANOVAs with adjusted p-values and/or Newman-Keuls post-hoc tests.

[4] = system: BALB/cJ mice; details: acute 10 mg/kg fluoxetine; cited from earlier work
[5] = system: BALB/cJ mice; assay: Prepulse inhibition of startle; type: in vivo, mouse
Procedure: as §1, §2
Prepulse Inhibition: Startle experiments were performed in MED-Associates chambers. Nonrestrictive Plexiglas cylinders 5 cm in diameter rested on a Plexiglas platform with a transducer amplifier. The sound-dampening isolation chambers were ventilated, well-lit, and equipped with an acoustic stimulator. Data acquisition was performed using Med-Associates software.
Five different trial types were presented in the test session: a 40-msec broadband 120 dB burst (PULSE ALONE trial); three different PREPULSE+PULSE trials in which 20-msec long 3 dB (pp3), 6 dB (pp6), or 12 dB (pp12) stimuli above a 70 dB background preceded the 120 dB pulse by 100 msec (onset to onset), and a NO STIMULUS trial, in which only the background noise was presented. Trials were presented in a pseudo-random order. A variable interval of 10-20 seconds separated trials.
The test session consisted of 62 test trials. The session began with a 10 min acclimation period, followed by four consecutive blocks of test trials. Blocks one and four consisted of six consecutive PULSE ALONE trials, while blocks two and three contained six PULSE ALONE trials, five pp3+p120 trials, five pp6+p120 trials, five pp12+p120 trials, and four NO STIMULUS trials. Analyses were performed using average values for each trial type.
Prepulse Inhibition: PPI was calculated as the averaged startle magnitude caused by PULSE ALONE trials from blocks two and three, minus the averaged startle magnitude caused by the prepulse-pulse trials, all divided by the averaged PULSE ALONE values from blocks two and three. The resulting value was multiplied by 100 and presented as a percent PPI value. Four-factor ANOVAs with fluoxetine and RU24969 as between subjects factors and prepulse intensity and block as within subjects variables assessed percent PPI levels. Interactions were resolved using post-hoc ANOVAs with adjusted p-values, and/or Newman-Keuls post-hoc tests.

[6] = administration of fluoxetine in the drinking water; cited from earlier work
[7] = patients taking 20-80 mg/day Prozac; cited from earlier work
[8] = subchronic (4-5 days) fluoxetine

Structure (SMILES): CNCCC(Oc1ccc(C(F)(F)F)cc1)c1ccccc1 (stereo not shown) [fluoxetine]
- effect in the modified FST ([1]; acute administration of 10 mg/kg/day in the drinking water, expected): no effect
- climbing ([1]; chronic 25 mg/kg/day): increased climbing relative to all other doses
- swimming ([1]; chronic 10 and 18 mg/kg/day, compared to 0 and 25 mg/kg/day): increases in swimming
- immobility ([1]; chronic fluoxetine): No significant effects
- climbing ([1]; subchronic (7 days) 18 mg/kg/day relative to the 0 dose): increase in climbing
- immobility ([1]; subchronic (7 days) fluoxetine): no effect
- swimming ([1]; subchronic (7 days) fluoxetine): no effect
- intracranial self-stimulation reward thresholds [2]: no effect
- milk consumption in the home cage, first block (0-5 min) ([3]; chronic 25 mg/kg/day): increased milk consumption compared to control
- milk consumption in the novel cage, first block (0-5 min) ([3]; chronic 18 and 25 mg/kg/day): increased milk consumption compared to the 0 and 10 mg/kg/day doses
- latency difference scores (novel minus home) ([3]; chronic 18 and 25 mg/kg/day vs control): control animals exhibited significantly larger difference scores
- latency to drink milk in the home cage ([3]; chronic fluoxetine): reduced the latency to drink milk in the novel, but not the home cage
- latency to drink in the novel cage ([3]; chronic fluoxetine, all three doses (10, 18, 25 mg/kg/day)): reduced the latency to drink relative to control in a dose-related fashion
- consumption in the home cage, post-hoc tests ([3]; subchronic (4-5 days) 25 mg/kg/day): only a trend for the 25 mg/kg/day dose to increase consumption relative to control
- latency to drink [3, 8]: no effect on any measure of latency
- milk consumption [3, 8]: no effect
- immobility [4]: reduces immobility acutely
- PPI in RU24969-treated mice ([5]; chronic 10 mg/kg/day fluoxetine, 12 dB prepulse intensity): increased PPI relative to RU24969-treated mice receiving 0 and 18 mg/kg/day fluoxetine
- Startle reactivity, interactions of RU24969 with fluoxetine ([5]; chronic fluoxetine): no interactions
- RU24969-induced disruption of PPI ([5]; chronic fluoxetine 10, 18, 25 mg/kg/day, 10 mg/kg RU24969, 3, 6, 12 dB prepulse): RU24969 disrupted PPI in control mice, but not mice treated with any dose of fluoxetine
- PPI, fluoxetine alone ([5]; chronic fluoxetine without RU24969): No effects
- PPI, interactions of RU24969 with fluoxetine ([5]; subchronic fluoxetine (1-2 days)): No interactions
- startle reactivity in the second and third blocks ([5]; subchronic fluoxetine study (1-2 days), 10 mg/kg RU24969): no effects
- time by which steady state blood levels have been achieved [6]: ≤ 5 days
- range of plasma levels found in patients [7]: 100 to 700 ng/mL
